Measurements as given in patent EP2252154B1, “METHOD FOR MINIMIZING THE CYTOTOXICITY OF THE EFFECTIVE AGENT IN A COMPOSITION THAT IS ADMINISTERED TO A MAMMAL OR GETS INTO CONTACT WITH A MAMMAL” (Oy Granula AB LTD, priority 2008, dated 2009).
≈ marks a conversion by molar mass, not a printed value. Where two headings read alike, the source gives them in different places.

How the values were obtained:
human keratinocyte cells = test system: human keratinocyte cells
Protocol: The composition of the individual compounds included in the compound mixture contained by the samples was in accordance with Table 3B. The cytotoxicity of the sample extracts and powders for human keratinocyte cells was measured. The employed measure of cytotoxicity was the total protein quantity created by the samples, when the samples were incubated together with human keratinocyte cells for a certain incubation time (24 h). For each sample, there was searched a limit value (EC20), by which 20% of the cultivated cells died.

[1] = Peroxide radicals capturing capacity; assay type: biochemical; details: pure polyphenols isolated from wood material; per gram
[2] = Antioxidative capacity: inhibition of the peroxidation of lipids; assay type: biochemical; details: pure polyphenols isolated from wood materials
[3] = pure polyphenols; footnote 1: Willför et al., J. Agric. Food. Chem., 51, 7600-7606 (2003); cited from earlier work
[4] = pure polyphenols; footnote 1: Willför et al., J. Agric. Food. Chem, 51. 26 (2003); cited from earlier work

Row | EC50 [2] [µg/mL] | Compound | capturing capacity [1] [mmol/g] | capturing capacity [3] [mmol/g] | EC50 [4] [µg/mL] | further results
1 |  | Cc1cc(C(C)(C)C)c(O)c(C(C)(C)C)c1 [BTH, butylated hydroxytoluene] |  |  |  | times more cytotoxic with respect to HMR extract mixtures (human keratinocyte cells; from Table 1): 50-100 times; EC20 ppm 24 h (human keratinocyte cells; human, 24 h): 5.50 ppm
2 | 0.017 (≈ 0.0472 µM) | COc1cc([C@H]2c3cc(O)c(OC)cc3C[C@@H](CO)[C@@H]2CO)ccc1O [Cyclolariciresinol] | 12 |  |  | 
3 | 0.488 (≈ 1.69 µM) | O=C1c2c(O)cc(O)cc2O[C@H](c2ccc(O)cc2)[C@H]1O [Dihydrokaempferol] | 0.78 |  |  | 
4 |  | COc1cc(C[C@H]2C(=O)OC[C@@H]2[C@H](O)c2ccc(O)c(OC)c2)ccc1O [Hydroxymatairesinol] |  | 5.6 | 0.058 (≈ 0.155 µM) | 
5 |  | COc1cc(C[C@H]2CO[C@H](c3ccc(O)c(OC)c3)[C@H]2CO)ccc1O [Lariciresinol] |  | 2.7 | 0.126 (≈ 0.35 µM) | 
6 |  | COc1cc(C[C@H]2COC(=O)[C@@H]2Cc2ccc(O)c(OC)c2)ccc1O [Matairesinol] |  | 2.9 | 0.099 (≈ 0.276 µM) | 
7 | 0.036 (≈ 0.118 µM) | Oc1ccc([C@H]2Oc3c(ccc(O)c3O)[C@@H](O)[C@H]2O)cc1O [Melacasidine] | 20 |  |  | 
8 |  | COc1cc(CC2COC(=O)C2(O)Cc2ccc(O)c(OC)c2)ccc1O (stereo not shown) [Nortrachelogenin] |  | 5.9 | 0.053 (≈ 0.142 µM) | 
9 | 1.135 (≈ 4.43 µM) | O=C1C[C@@H](c2ccccc2)Oc2cc(O)cc(O)c21 [Pinosembrin] | 0.49 |  |  | 
10 | 0.05 (≈ 0.236 µM) | Oc1cc(O)cc(/C=C/c2ccccc2)c1 [Pinosylvin] | 0.78 |  |  | 
11 |  | COc1cc(C[C@@H](CO)[C@H](CO)Cc2ccc(O)c(OC)c2)ccc1O [Secoisolariciresinol] |  | 8.5 | 0.037 (≈ 0.102 µM) | 
12 |  | O=C1c2c(O)cc(O)cc2O[C@H](c2ccc(O)c(O)c2)[C@H]1O [Taxifolin] |  | 16 | 0.046 (≈ 0.151 µM) | 
13 | 0.05 (≈ 0.172 µM) | Oc1ccc([C@H]2Oc3c(ccc(O)c3O)[C@@H](O)[C@H]2O)cc1 [Teracasidine] | 7.8 |  |  | 

Row | Compound | EC50 [2] [µg/mL] | capturing capacity [1] [mmol/g] | capturing capacity [3] [mmol/g] | EC50 [4] [µg/mL] | further results
14 | Pinoresinol | 0.02 | 7.8 |  |  | 
